Marks after values point to notes of the source that are not given here.
Columns and labels:
Parameters in all cases: species or system broiler chickens
Conditions in all cases: in vivo
T-2 toxin in chickens [1] = tested on: T-2 toxin in chickens
T-2 toxin in chickens [2] = tested on: T-2 toxin in chickens; remark: listed apart in the source
T-2 toxin in chickens [3] = tested on: T-2 toxin in chickens; remark: listed apart in the source
T-2 toxin in chickens [4] = tested on: T-2 toxin in chickens; remark: listed apart in the source
T-2 toxin in chickens [5] = tested on: T-2 toxin in chickens; remark: listed apart in the source
Newcastle = tested on: Newcastle

T-2 toxin
Ash, medians ± standard error (T-2 toxin in chickens [1]): 56.37 ± 0.32 ^a %
Calcium, medians ± standard error (T-2 toxin in chickens [1]): 20.43 ± 0.19 ^a %
Manganesium, medians ± standard error (T-2 toxin in chickens [1]): 6.7 ± 0.21 ^a mg/kg
Phosphorous, medians ± standard error (T-2 toxin in chickens [1]): 9.72 ± 0.07 ^a %
Zinc, medians ± standard error (T-2 toxin in chickens [1]): 247 ± 4.37 ^a mg/kg
Granulocytes (segmented neutrophils and band neutrophils), medians ± standard error (T-2 toxin in chickens [2]): 0.9 ± 0.17 ^a 10^3/μL
Hematocrit, medians ± standard error (T-2 toxin in chickens [2]): 31.8 ± 1.56 ^a %
Hemoglobin, medians ± standard error (T-2 toxin in chickens [2]): 12.1 ± 0.46 ^a g/dL
Lymphocytes, medians ± standard error (T-2 toxin in chickens [2]): 58.4 ± 3.32 ^b 10^3/μL
Median cell count (monocytes, basophils and eosinophils), medians ± standard error (T-2 toxin in chickens [2]): 5.8 ± 0.76 ^a 10^3/μL
Platelets, medians ± standard error (T-2 toxin in chickens [2]): 31 ± 4.95 ^a 10^3/μL
Red blood cells (erythrocytes), medians ± standard error (T-2 toxin in chickens [2]): 2.46 ± 0.12 ^a 10^6/μL
White blood cells (Leukocytes), medians ± standard error (T-2 toxin in chickens [2]): 65.10 ± 4.07 ^b 10^3/μL
Gizzard: loss of continuity, ulcer activity (moderate multifocal ulcerative ventriculitis) (T-2 toxin in chickens [3]): 7/12
Gizzard: scant erosions in the recovery zone (discrete, multifocal erosions) (T-2 toxin in chickens [3]): 5/12
Kidney: lymphocyte clusters in the interstitial space (T-2 toxin in chickens [3]): 4/12
Larynx: no significant changes (T-2 toxin in chickens [3]): 4/12
Liver: areas of extramedullary hematopoiesis (T-2 toxin in chickens [3]): 1/12
Liver: multifocal lymphocyte clusters around portal cavities and in the parenchymal (lymphocytic colangiohepatitis) (T-2 toxin in chickens [3]): 8/12
Liver: scant fat vacuoles/cells in hepatocyte cytoplasm (esteatosis) (T-2 toxin in chickens [3]): 3/12
Proventriculus: hyperplasia / cluster of associated lymphoid tissue (T-2 toxin in chickens [3]): 1/12
Proventriculus: no significant changes (T-2 toxin in chickens [3]): 11/12
Spleen, thymus: no significant changes (T-2 toxin in chickens [3]): 12/12
Tongue: dense plates above epithelium lining with lymphocyte and macrophage clusters (estomatitis and erosive/necrotic glositis) (T-2 toxin in chickens [3]): 8/12
Tongue: no significant changes (animals/examined) (T-2 toxin in chickens [3]): 4/12
Feed consumption, medians ± standard error (T-2 toxin in chickens [4]): 2035 ± 44.3 ^a
Feed conversion, medians ± standard error (T-2 toxin in chickens [4]): 1.45 ± 0.035 ^b
Weight gain, medians ± standard error (T-2 toxin in chickens [4]): 1399 ± 29.46 ^b
Weight in g, Final (28 days), medians ± standard error (T-2 toxin in chickens [4]): 1442 ± 29.49 ^b g
Weight in g, Initial, medians ± standard error (T-2 toxin in chickens [4]): 43 ± 0.43 ^a g
Xantophylls (oral solution), medians ± standard error (T-2 toxin in chickens [4]; po): 8.92 ± 0.70 ^b mg/L
Relative weight of bursa of Fabricius (%), medians ± standard error (T-2 toxin in chickens [5]): 0.248 ± 0.016 ^a %
Relative weight of kidney (%), medians ± standard error (T-2 toxin in chickens [5]): 0.809 ± 0.032 ^a %
Relative weight of liver (%), medians ± standard error (T-2 toxin in chickens [5]): 2.57 ± 0.104 ^a %
Relative weight of spleen (%), medians ± standard error (T-2 toxin in chickens [5]): 0.094 ± 0.009 ^a %
Relative weight of thymus (%), medians ± standard error (T-2 toxin in chickens [5]): 0.282 ± 0.020 ^a %
Inhibition of Newcastle hemagglutination (18 days after vaccination), medians ± standard error (Newcastle): 8.717 ± 0.29 ^b Log2
